According to US11931347B2, “Method of screening for agents for differentiating stem cells” (MINERVA BIOTECHNOLOGIES CORPORATION, priority 2015, dated 2024):
“Also recorded” adds a separate entry of the source.

Experiments:
[1] = system: human naïve state stem cells; assay: stem cell drug screening assay on naïve state stem cells; type: cell-based; conditions: 500 nM or 1 uM, cells from NME7AB or NME1 dimers, growth factor absent
[2] = system: human primed state stem cells; assay: stem cell drug screening assay on primed state stem cells; type: cell-based; conditions: treated for 3 days, bFGF absent
Protocol: The stem cell screening assay, was performed in both the presence and absence of the stem cell growth factors: NME7AB for growing naïve stem cells or FGF for growing primed stem cells. If the cognate growth factor was present, then the biological or small molecule would have to compete away the growth factor to get an effect. Therefore, we expected to see more of an effect when the growth factor, FGF for primed stem cells or NME7AB or NME1 dimers for naïve stem cells, was absent. The effect of the compounds on stem cells was visually determined and compounds were ranked 0-4, with 4 being the greatest effect and 0 being no observable effect. The major effect that was observed was a change from pluripotent stem cell morphology, which is a cobblestone pattern of small round cells with a large nucleus to cytoplasm ratio, to that of differentiating stem cells, which are elongated, large and flattened cells with a smaller nucleus to cytoplasm ratio. […] The compounds were added to a final concentration of 6 uM to either naïve state stem cells or primed state stem cells. In this particular case, the naïve state stem cells were maintained in a naïve state by culturing in a media containing NME7AB or NME1 dimers. However, other methods such as 2i and 5i (Silva et al., 2008, Nichols and Smith, 2009, Theunissen et al., 2014)] can be used to maintain stem cells in a more naïve state. In this case primed state stem cells were cultured in bFGF over a layer of MEFs, although it is known that any bFGF containing media will maintain stem cells in the primed state.
Stem cells whether embryonic or induced pluripotent stem (iPS) cells were cultured in a minimal, serum-free media that contained human recombinant bFGF at a concentration of 8 ng/mL. The stem cells were plated over a layer of inactivated mouse embryonic fibroblasts, aka MEFs, which secrete additional uncharacterized growth factors and cytokines.
Human naïve state and primed stem cells were cultured in parallel for at least 5 passages to guarantee normal differentiation-free growth. The stem cells were plated in 12-well cell culture plates with 50,000 cells per well. Cells were cultured in their respective media, either bFGF media or NME7AB media for 24 hours. Media was then removed and replaced with media devoid of bFGF or NME7AB, when indicated. Agents being tested for their ability to induce differentiation of naïve stem cells were added to the media at the concentrations indicated. After 72 hours, photographs were taken see FIGS. 1-10.
Human naïve state and primed stem cells were cultured in parallel for at least 5 passages to guarantee normal differentiation-free growth. The stem cells were plated in 12-well cell culture plates with 50,000 cells per well. Cells were cultured in their respective media, either bFGF media or NME7AB media for 24 hours. Media was then removed and replaced with media devoid of bFGF or NME7AB. […] Media was changed after 48 hours and replaced with fresh media containing the BRD4 inhibitors. After 4 days the experiment was stopped. Photographs were taken and cell pellets collected for further analysis, see FIGS. 11-16.

[3] = system: E-cadherin, fibronectin, vimentin and NF1 expression in naïve stem cells; assay: RT-PCR of differentiation markers in treated naïve stem cells; type: cell-based, human
Protocol: FIG. 161 is a graph of RT-PCR measurement of naïve stem cells that have been treated with compounds of the invention. The genes whose expression is measured are E-cadherin, which goes […] as cells undergo epithelial to mesenchymal transition, fibronectin and vimentin, which both increase as stem cells initiate differentiation and NF1, which is one of the first genes to increase when stem cells begin to differentiate down the neural lineage. […] E-cadherin is the opposite; it […] as cells become cancerous. […] Expression of metastatic marker E-cadherin was reduced and expression of differentiation markers fibronectin, vimentin and NF1 were increased (FIG. 162-FIG. 163). Novel compounds of the invention are highly specific. […] Although we discovered that NME1 dimers, NME7AB and NME7-X1 are all activating ligands of the MUC1* growth factor receptor and they bind to its extracellular domain, we have developed ample evidence that both NME7AB and NME7-X1 have other binding partners and can exert oncogenic effects, independent of MUC1*.

In the case of `Cc1sc2c(c1C)C(c1ccc(Cl)cc1)=N[C@@H](CC(=O)OC(C)(C)C)c1nnc(C)n1-2` [JQ1+, JQ1], the “effect on naïve stem cell differentiation and growth” value [1] was “dramatically induced differentiation”, the “effect on naïve stem cell differentiation and growth” value ([1]; listed as JQI) was “inhibitory effect” and the “effect on primed stem cell colony size and morphology” value ([2]; listed as JQ1(+)) was “modest effect on the size of primed stem cell colonies; also recorded: some abnormal morphology”. For the same compound, the “induction of differentiation of primed state stem cells” value ([2]; listed as JQ1(+)) was “None of these agents appeared to induce differentiation”, the “induction of differentiation of primed state stem cells” value ([2]; listed as JQI) was “not primed stem cell growth” and the “up-regulation of markers of differentiation in naïve stem cells (RT-PCR)” value [3] was “did not cause up-regulation of markers of differentiation”.
